Literature values in patent publication US9012467B2, “Compositions for intratumoral administration” (Covidien LP, priority 2009, dated 2015).

Tested on: mice
Conditions: acute toxicity

For `COC(=O)C1=CO[C@@H](O)[C@@H]2C(CO)=CC[C@H]12` [Genipin, genipin], which LD50 i.v. is on record?
Its LD50 i.v. is 382 mg/k.
